What was measured:
5-HT2A = molecular target: T1, 5-HT2A (Mus musculus, UniProt P35363); experiment: Competition binding vs [3H]M100907 in mouse brain membranes
T1 construct: tissue BioIVT; host or cells: whole C57BL/6 mouse brain minus cerebellum, male and female
Procedure: (§1) Competition binding studies were conducted in mouse brain tissue as previously described (Glatfelter et al. [2022b]). Briefly, the experiments utilized membranes prepared from whole C57BL/6 mouse brain minus cerebellum (BioIVT, Westbury, NY, USA). […] We assessed the ability of test drugs to compete for [^3H]M100907 binding at 5-HT2A (1 nM) or [^3H]8-OH-DPAT binding at 5-HT1A (0.5 nM). Radioligands were purchased commercially (PerkinElmer, Boston, MA, USA). Nonspecific binding was determined using 10 µM ketanserin for 5-HT2A and serotonin for 5-HT1A. All data represent 3 experiments performed in triplicate.
(§2) Concentration-response data were fit to a single site non-linear regression model. For the HTR studies, potencies were determined from the ascending limb of the dose-response curves using ED50 potency values from [agonist] vs. response (variable slope, four parameter) least squares fit non-linear regression analyses, whereas efficacy was defined by the top output parameter or Emax from the aforementioned analyses. […] Best-fit values for ED50 and Emax from non-linear regression analyses were compared by extra sum-of-squares F tests. Mean effects for each behavioral endpoint were compared using two-way ANOVA (dose x sex), followed by Sidak’s multiple comparisons post-hoc test. Mean effects for pooled mouse behavioral data were compared via Welch’s ANOVA with Dunnett’s T3 post-hoc test, comparing all doses to saline vehicle controls (0 mg/kg). Alpha was set to 0.05 for all analyses.

5-HT1A = molecular target: T2, 5-HT1A (Mus musculus, UniProt Q64264); experiment: Competition binding vs [3H]8-OH-DPAT in mouse brain membranes
T2 construct: tissue BioIVT; host or cells: whole C57BL/6 mouse brain minus cerebellum, male and female
T2 sequence (Q64264 1-421): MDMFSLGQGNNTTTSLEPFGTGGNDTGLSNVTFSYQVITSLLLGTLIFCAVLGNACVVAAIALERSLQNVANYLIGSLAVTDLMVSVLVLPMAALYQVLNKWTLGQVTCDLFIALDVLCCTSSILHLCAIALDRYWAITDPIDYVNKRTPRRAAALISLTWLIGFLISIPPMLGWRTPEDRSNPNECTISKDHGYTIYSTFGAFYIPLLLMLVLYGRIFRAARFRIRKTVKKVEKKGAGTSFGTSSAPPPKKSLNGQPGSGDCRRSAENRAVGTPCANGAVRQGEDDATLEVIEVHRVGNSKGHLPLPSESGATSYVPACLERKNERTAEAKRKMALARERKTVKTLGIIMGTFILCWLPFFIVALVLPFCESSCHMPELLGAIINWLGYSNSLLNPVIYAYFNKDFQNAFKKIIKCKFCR
Procedure: as §1, §2

C57BL/6J mice = settings: range over Table 1 and an earlier study; ref Glatfelter et al. ([2024b]); cited from earlier work
[1] = [3H]M100907 Binding ♀ m5-HT2A Ki, female mouse brain membranes
[2] = [3H]M100907 Binding ♂ m5-HT2A Ki, male mouse brain membranes
[3] = [3H]8-OH-DPAT Binding ♀ m5-HT1A Ki, female mouse brain membranes
[4] = [3H]8-OH-DPAT Binding ♂ m5-HT1A Ki, male mouse brain membranes
[5] = male and female mouse brain membranes, summary statement

T1 sequence (P35363 whole entry): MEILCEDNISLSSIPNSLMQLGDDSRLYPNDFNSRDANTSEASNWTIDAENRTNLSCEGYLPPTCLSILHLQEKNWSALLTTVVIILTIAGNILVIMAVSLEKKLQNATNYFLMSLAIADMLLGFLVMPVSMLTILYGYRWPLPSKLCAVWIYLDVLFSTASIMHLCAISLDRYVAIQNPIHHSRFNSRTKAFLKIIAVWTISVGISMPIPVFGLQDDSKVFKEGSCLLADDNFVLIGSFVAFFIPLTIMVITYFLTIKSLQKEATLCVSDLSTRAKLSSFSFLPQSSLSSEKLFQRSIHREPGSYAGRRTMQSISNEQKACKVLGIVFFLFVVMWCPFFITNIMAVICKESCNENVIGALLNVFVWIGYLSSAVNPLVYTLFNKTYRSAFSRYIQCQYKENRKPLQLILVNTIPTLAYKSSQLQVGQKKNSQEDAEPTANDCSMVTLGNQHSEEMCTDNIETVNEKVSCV

SMILES	Ki (5-HT2A; 5-HT2A binding affinity (Ki), males and females, male and female mouse brain membranes, summary statement) [nM]	Ki (5-HT2A; [1]) [nM]	Ki (5-HT2A; [2]) [nM]	Ki (5-HT1A; 5-HT1A binding affinity (Ki), males and females, male and female mouse brain membranes, summary statement) [nM]	Ki (5-HT1A; [3]) [nM]	Ki (5-HT1A; [4]) [nM]	s.c. ED50 doses for inducing HTR in mice (C57BL/6J mice) [mg/kg]	5-HT2A binding affinity (Ki), males and females (5-HT2A; [5])	5-HT1A binding affinity (Ki), males and females (5-HT1A; [5])
CCN(CC)C(=O)[C@@H]1C=C2c3cccc4[nH]cc(c34)C[C@H]2N(C)C1 [LSD, lysergic acid diethylamide]	1 to 100	1.9	2.3	1 to 100	0.95	1.02	0.035 to 0.039	–	–
COc1cc(CC(C)N)c(OC)cc1I (stereo not shown) [DOI, 2,5-dimethoxy-4-iodoamphetamine]	–	11	13	–	2650	2870	–	low nanomolar affinity	µM affinity

— article PMC12449377, “Psychedelic-like effects induced by 2,5-dimethoxy-4-iodoamphetamine, lysergic acid diethylamide, and psilocybin in male and female C57BL/6J mice” (Psychopharmacology, 2025)
